In patent US6479435B1, “Diaryl ethers and processes for their preparation and herbicidal and desiccant compositions containing them” (ISK Americas Incorporated, priority 1997, dated 2002):

Key:
Assay type in all cases: in vivo
[1] = system: Johnsongrass (Sorghum halepense, SORHA); experiment: Pre-emerge greenhouse herbicide test, phytotoxicity rating; conditions: 14 days after application, rating scale 0-100
How it was run: (§1)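 Visual 0–100 injury rating (100 = all plants dead) taken 14 days after treatment. Rates of 125–1000 g ai/ha in acetone, 187 l/ha, were sprayed onto soil one day post-sowing; pots were surface-watered to incorporate, then bottom-watered.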

[2] = system: barnyardgrass (Echinochloa crusgalli, ECHCG); experiment: as above; conditions: 14 days after application, rating scale 0-100
How it was run: as §1

[3] = system: green foxtail (Setaria viridis, SETVI); experiment: as above; conditions: 14 days after application, rating scale 0-100
How it was run: as §1

[4] = system: ivyleaf morningglory (Ipomoea hederacea, IPOHE); experiment: as above; conditions: 14 days after application, rating scale 0-100
How it was run: as §1

[5] = system: lambsquarters (Chenopodium album, CHEAL); experiment: as above; conditions: 14 days after application, rating scale 0-100
How it was run: as §1

[6] = system: large crabgrass (Digitaria sanguinalis, DIGSA); experiment: as above; conditions: 14 days after application, rating scale 0-100
How it was run: as §1

[7] = system: redroot pigweed (Amaranthus retroflexus, AMARE); experiment: as above; conditions: 14 days after application, rating scale 0-100
How it was run: as §1

[8] = system: sicklepod (Cassia obtusifolia, CASOB); experiment: as above; conditions: 14 days after application, rating scale 0-100
How it was run: as §1

[9] = system: velvetleaf (Abutilon theophrasti, ABUTH); experiment: as above; conditions: 14 days after application, rating scale 0-100
How it was run: as §1

[10] = system: field corn (Zea mays L., var. Dekalb 535, CORN); experiment: Pre-emerge greenhouse test, crop damage rating; conditions: 14 days after application, rating scale 0-100
How it was run: as §1

[11] = system: upland rice (Oryza sp., var.Tebonnet, RICE); experiment: Pre-emerge greenhouse test, crop damage rating; conditions: 14 days after application, rating scale 0-100
How it was run: as §1

[12] = system: soybean (Glycine max L., var. Pella 86, SOY); experiment: Pre-emerge greenhouse test, crop damage rating; parameters: key to SOY crop damage rating: 0 = no damage, 100 = complete death of all plants; conditions: 14 days after application, rating scale 0-100
How it was run: as §1

[13] = system: common ragweed (Ambrosia artemisiifolia L., AMBEL); experiment: Post-emerge greenhouse herbicide test, phytotoxicity rating; conditions: 14 days after application, scale 0-100
Source text: A standard greenhouse herbicide activity screening system was used to evaluate the herbicidal efficacy and crop safety of these test compounds. Six broadleaf weed species including redroot pigweed (Amaranthus retroflexus, AMARE), velvetleaf (Abutilon theophrasti, ABUTH), sicklepod (Cassia obtusifolia, CASOB), ivyleaf morningglory (Ipomoea hederacea, IPOHE), lambsquarters (Chenopodium album, CHEAL) and common ragweed (Ambrosia artemisiifolia L., AMBEL) were used as test species. Four grass weed species including green foxtail (Setaria viridis, SETVI), barnyardgrass (Echinochloa crusgalli, ECHCG), Johnsongrass (Sorghum halepense, SORHA), and large crabgrass (Digitaria sanguinalis, DIGSA) were also used. In addition, three crop species, field corn (Zea mays L., var. Dekalb 535, CORN), soybean (Glycine max L., var. Pella 86, SOY), and upland rice (Oryza sp., var.Tebonnet, RICE) were included.
All test compounds were dissolved in acetone and applied to the test units in a volume of 187 l/ha. […] Plants were arranged on a shelf so that the top of the canopy (post-emerge) or top of the soil surface (pre-emerge) was 40-45 cm below the nozzle. Pressurized air was used to force the test solution through the nozzle as it was mechanically advanced (via electrically driven chain drive) over the top of all test plants/pots. This application simulates a typical commercial field herbicide application.
In the post-emerge test, a commercial non-ionic surfactant was also included (0.25% v/v) to enhance wetting of the leaf surfaces Qf target plants at rates ranging from 63 g ai/ha to 1000 g ai/ha. For post-emerge tests, seeds were planted 8-21 days prior to the test to allow emergence and good foliage development prior to application of the test substances. At the time of the post-emerge application, plants of all species were usually at the 2-3 leaf stage of development. Post-emerge test units were always bottom-watered.
At 14 days after application of the test materials, phytotoxicity ratings were recorded. A rating scale of 0-100 was used as previously described in Research Methods in Weed Science, 2nd edition, B. Truelove, Ed., Southern Weed Science Society, Auburn University, Auburn, Ala., 1977. Briefly, “0” corresponds to no damage and “100” corresponds to complete death of all plants in the test unit. This scale was used both to determine efficacy against weed species and damage to crop species. Herbicide activity data for various compounds of this invention, which are shown by compound number in Tables 1-9, are shown in Tables 13 and 14.

[14] = system: Johnsongrass (Sorghum halepense, SORHA); experiment: as above; conditions: 14 days after application; for phytotoxicity rating SORHA: scale 0-100
How it was run: (§2)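 Scores use a 0 (no damage) to 100 (complete kill) scale, taken 14 days after a foliar spray. Acetone solutions with 0.25% v/v non-ionic surfactant were applied by track sprayer at 187 l/ha and 63-1000 g ai/ha to bottom-watered 2-3 leaf plants.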

[15] = system: barnyardgrass (Echinochloa crusgalli, ECHCG); experiment: as above; conditions: 14 days after application; for phytotoxicity rating ECHCG: scale 0-100
How it was run: as §2

[16] = system: green foxtail (Setaria viridis, SETVI); experiment: as above; conditions: 14 days after application; for phytotoxicity rating SETVI: scale 0-100
How it was run: as §2

[17] = system: ivyleaf morningglory (Ipomoea hederacea, IPOHE); experiment: as above; conditions: 14 days after application; for phytotoxicity rating IPOHE: scale 0-100
How it was run: as §2

[18] = system: lambsquarters (Chenopodium album, CHEAL); experiment: as above; conditions: 14 days after application; for phytotoxicity rating CHEAL: scale 0-100
How it was run: as §2

[19] = system: large crabgrass (Digitaria sanguinalis, DIGSA); experiment: as above; conditions: 14 days after application; for phytotoxicity rating DIGSA: scale 0-100
How it was run: as §2

[20] = system: redroot pigweed (Amaranthus retroflexus, AMARE); experiment: as above; conditions: 14 days after application; for phytotoxicity rating AMARE: scale 0-100
How it was run: as §2

[21] = system: sicklepod (Cassia obtusifolia, CASOB); experiment: as above; conditions: 14 days after application; for phytotoxicity rating CASOB: scale 0-100
How it was run: as §2

[22] = system: velvetleaf (Abutilon theophrasti, ABUTH); experiment: as above; conditions: 14 days after application; for phytotoxicity rating ABUTH: scale 0-100
How it was run: as §2

[23] = system: field corn (Zea mays L., var. Dekalb 535, CORN); experiment: Post-emerge greenhouse test, crop damage rating; conditions: 14 days after application; for crop damage rating CORN: scale 0-100
How it was run: as §2

[24] = system: upland rice (Oryza sp., var.Tebonnet, RICE); experiment: Post-emerge greenhouse test, crop damage rating; conditions: 14 days after application; for crop damage rating RICE: scale 0-100
How it was run: as §2

[25] = system: soybean (Glycine max L., var. Pella 86, SOY); experiment: Post-emerge greenhouse test, crop damage rating; parameters: key to crop damage rating SOY: 0-100 scale: 0 = no damage, 100 = complete death of all plants; conditions: 14 days after application; for crop damage rating SOY: scale 0-100
How it was run: as §2

CCOC(=O)C(C)Oc1ccc(Oc2cc(-n3c(=O)n4n(c3=S)CCCC4)c(F)cc2Cl)c(N)c1 (centres unmarked) [Compound 8-40]
50: CHEAL phytotoxicity rating ([5]; Rate 125 g al/ha) | ABUTH phytotoxicity rating ([9]; Rate 125 g al/ha)
10: phytotoxicity rating SETVI ([16]; rate 250 g ai/ha) | crop damage rating CORN ([23]; rate 250 g ai/ha)
100: CHEAL phytotoxicity rating ([5]; Rate 250 g al/ha) | AMARE phytotoxicity rating ([7]; Rate 250 g al/ha) | phytotoxicity rating IPOHE ([17]; rate 250 g ai/ha) | phytotoxicity rating ABUTH ([22]; rate 63 g ai/ha) | phytotoxicity rating ABUTH ([22]; rate 250 g ai/ha)
75: phytotoxicity rating CASOB ([21]; rate 250 g ai/ha)
80: phytotoxicity rating AMBEL ([13]; rate 63 g ai/ha) | phytotoxicity rating CHEAL ([18]; rate 250 g ai/ha) | phytotoxicity rating AMARE ([20]; rate 63 g ai/ha) | crop damage rating SOY ([25]; rate 63 g ai/ha)
90: phytotoxicity rating AMARE ([20]; rate 250 g ai/ha)
60: AMARE phytotoxicity rating ([7]; Rate 125 g al/ha) | phytotoxicity rating CHEAL ([18]; rate 63 g ai/ha) | crop damage rating SOY ([25]; rate 250 g ai/ha)
20: CASOB phytotoxicity rating ([8]; Rate 250 g al/ha) | phytotoxicity rating AMBEL ([13]; rate 250 g ai/ha)
0: SORHA phytotoxicity rating ([1]; Rate 125 g al/ha) | SORHA phytotoxicity rating ([1]; Rate 250 g al/ha) | ECHCG phytotoxicity rating ([2]; Rate 125 g al/ha) | ECHCG phytotoxicity rating ([2]; Rate 250 g al/ha) | SETVI phytotoxicity rating ([3]; Rate 125 g al/ha) | SETVI phytotoxicity rating ([3]; Rate 250 g al/ha) | IPOHE phytotoxicity rating ([4]; Rate 125 g al/ha) | IPOHE phytotoxicity rating ([4]; Rate 250 g al/ha) | DIGSA phytotoxicity rating ([6]; Rate 125 g al/ha) | DIGSA phytotoxicity rating ([6]; Rate 250 g al/ha) | CASOB phytotoxicity rating ([8]; Rate 125 g al/ha) | CORN crop damage rating ([10]; Rate 125 g al/ha) | CORN crop damage rating ([10]; Rate 250 g al/ha) | RICE crop damage rating ([11]; Rate 125 g al/ha) | RICE crop damage rating ([11]; Rate 250 g al/ha) | SOY crop damage rating ([12]; Rate 125 g al/ha) | SOY crop damage rating ([12]; Rate 250 g al/ha) | phytotoxicity rating SORHA ([14]; rate 63 g ai/ha) | phytotoxicity rating SORHA ([14]; rate 250 g ai/ha) | phytotoxicity rating ECHCG ([15]; rate 63 g ai/ha) | phytotoxicity rating ECHCG ([15]; rate 250 g ai/ha) | phytotoxicity rating SETVI ([16]; rate 63 g ai/ha) | phytotoxicity rating DIGSA ([19]; rate 63 g ai/ha) | phytotoxicity rating DIGSA ([19]; rate 250 g ai/ha) | phytotoxicity rating CASOB ([21]; rate 63 g ai/ha) | crop damage rating CORN ([23]; rate 63 g ai/ha) | crop damage rating RICE ([24]; rate 63 g ai/ha) | crop damage rating RICE ([24]; rate 250 g ai/ha)
30: ABUTH phytotoxicity rating ([9]; Rate 250 g al/ha)
40: phytotoxicity rating IPOHE ([17]; rate 63 g ai/ha)

O=c1cc2n(c(=O)n1-c1cc(Oc3ncccc3[N+](=O)[O-])c(Cl)cc1F)CCC2 [Compound 5-8]
80: phytotoxicity rating IPOHE ([4]; 1000 g ai/ha) | IPOHE phytotoxicity rating (0-100) ([17]; 1000 g al/ha)
20: SOY crop damage rating (0-100) ([25]; 1000 g al/ha)
30: CASOB phytotoxicity rating (0-100) ([21]; 1000 g al/ha)
40: AMARE phytotoxicity rating (0-100) ([20]; 1000 g al/ha)
15: crop damage rating CORN ([10]; 1000 g ai/ha)
100: phytotoxicity rating CHEAL ([5]; 1000 g ai/ha) | phytotoxicity rating DIGSA ([6]; 1000 g ai/ha) | phytotoxicity rating AMARE ([7]; 1000 g ai/ha) | phytotoxicity rating ABUTH ([9]; 1000 g ai/ha) | ABUTH phytotoxicity rating (0-100) ([22]; 1000 g al/ha)
0: phytotoxicity rating CASOB ([8]; 1000 g ai/ha) | SORHA phytotoxicity rating (0-100) ([14]; 1000 g al/ha) | ECHCG phytotoxicity rating (0-100) ([15]; 1000 g al/ha) | DIGSA phytotoxicity rating (0-100) ([19]; 1000 g al/ha) | CORN crop damage rating (0-100) ([23]; 1000 g al/ha) | RICE crop damage rating (0-100) ([24]; 1000 g al/ha)
85: phytotoxicity rating ECHCG ([2]; 1000 g ai/ha)
95: phytotoxicity rating SORHA ([1]; 1000 g ai/ha) | phytotoxicity rating SETVI ([3]; 1000 g ai/ha)
10: SETVI phytotoxicity rating (0-100) ([16]; 1000 g al/ha)
50: crop damage rating RICE ([11]; 1000 g ai/ha) | crop damage rating SOY ([12]; 1000 g ai/ha)
60: CHEAL phytotoxicity rating (0-100) ([18]; 1000 g al/ha)
